Experimental data published in patent US10316028B2, “Orexin receptor antagonists” (Heptares Therapeutics Limited, priority 2012, dated 2019).

Target: T1, human Orexin-2 receptor (Homo sapiens, UniProt O43614)
T1 construct: expressed in transfected cells; host or cells: HEK293 cells (transient transfection, Genejuice); membranes
T1 sequence (O43614 1-444): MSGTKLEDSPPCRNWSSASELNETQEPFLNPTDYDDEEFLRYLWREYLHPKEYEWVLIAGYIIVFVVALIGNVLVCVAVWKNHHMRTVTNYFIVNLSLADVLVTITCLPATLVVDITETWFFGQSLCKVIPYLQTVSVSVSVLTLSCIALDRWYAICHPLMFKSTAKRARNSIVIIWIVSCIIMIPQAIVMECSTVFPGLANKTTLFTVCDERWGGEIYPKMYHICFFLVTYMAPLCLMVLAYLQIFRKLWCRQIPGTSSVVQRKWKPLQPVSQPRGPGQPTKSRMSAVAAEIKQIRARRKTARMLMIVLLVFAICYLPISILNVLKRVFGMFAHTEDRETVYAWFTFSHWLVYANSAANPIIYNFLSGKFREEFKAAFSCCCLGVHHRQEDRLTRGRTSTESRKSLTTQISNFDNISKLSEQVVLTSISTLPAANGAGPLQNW
Test: 3H-EMPA radioligand binding assay
Settings: 3H-EMPA displacement, membranes of HEK293 cells transfected with human Orexin-2 receptor; KI by Cheng-Prussoff; read-out: OX2 pKi ave (converted)
Protocol: cDNA encoding the human Orexin-2 receptor was transfected into HEK293 cells using the transfection reagent Genejuice (Novagen). Forty-eight hours after transfection, cells were harvested and washed twice with ice cold phosphate-buffered saline. The pellet was resuspended in ice-cold buffer containing 20 mM Tris-HCl, pH 7.4, 1 mM EDTA and homogenised with an Ultraturax for 30 s at maximum speed. After centrifugation at 48,000 g for 30 min at 4° C., the pellet was resuspended and spun again. The final pellet was resuspended and frozen at −80° C. before use. Protein concentration was determined using the BCA protein assay method.
^3H-EMPA Radioligand Binding Assay
At the end of the incubation, membranes were filtered onto a unifilter, a 96-well white microplate with bonded GF/B filter pre-incubated with 0.5% polyethylenimine, with a Tomtec cell harvester and washed 4 times with distilled water. […] Radioactivity on the filter was counted (1 min) on a microbeta counter after addition of 50 µL of scintillation fluid. […] IC50 values were derived from the inhibition curve and the equilibrium dissociation constant (KI) values were calculated using the Cheng-Prussoff equation.

SMILES | Ki [nM]
COc1cc(OC)cc(N2C(=O)N(Cc3ccccc3Cl)c3ccccc3S2(=O)=O)c1 [Example 16, 4-(2-chlorobenzyl)-2-(3,5-dimethoxyphenyl)-2H-1,2,4-benzothiadiazin-3(4H)-one 1,1-dioxide] | 31.6
COC(=O)c1ccc(OC)c(CN2C(=O)N(c3cc(OC)cc(OC)c3)S(=O)(=O)c3ccccc32)c1 [Example 17, methyl 3-{[2-(3,5-dimethoxyphenyl)-1,1-dioxido-3-oxo-2,3-dihydro-4H-1,2,4-benzothiadiazin-4-yl]methyl}-4-methoxybenzoate] | 13.5
COc1ccc(N2C(=O)N(Cc3ccccc3C)c3ccccc3S2(=O)=O)cc1OC [Example 18, 2-(3,4-dimethoxyphenyl)-4-(2-methylbenzyl)-2H-1,2,4-benzothiadiazin-3(4H)-one 1,1-dioxide] | 14.8
COc1ccc(N2C(=O)N(Cc3ccccc3Cl)c3ccccc3S2(=O)=O)cc1OC [Example 19, 4-(2-chlorobenzyl)-2-(3,4-dimethoxyphenyl)-2H-1,2,4-benzothiadiazin-3(4H)-one 1,1-dioxide] | 18.6
COc1ccc(N2C(=O)N(Cc3ccc(F)cc3Cl)c3ccccc3S2(=O)=O)cc1OC [Example 21, 4-(2-chloro-4-fluorobenzyl)-2-(3,4-dimethoxyphenyl)-2H-1,2,4-benzothiadiazin-3(4H)-one 1,1-dioxide] | 23.4
CSc1cccc(N2C(=O)N(Cc3ccccc3Cl)c3ccccc3S2(=O)=O)c1 [Example 22, 4-(2-chlorobenzyl)-2-[3-(methylsulfanyl)phenyl]-2H-1,2,4-benzothiadiazin-3(4H)-one 1,1-dioxide] | 23.4
CSc1cccc(N2C(=O)N(Cc3ccccc3F)c3ccccc3S2(=O)=O)c1 [Example 23, 4-(2-fluorobenzyl)-2-[3-(methylsulfanyl)phenyl]-2H-1,2,4-benzothiadiazin-3(4H)-one 1,1-dioxide] | 20.9
O=C1N(Cc2c(F)cccc2Cl)c2ccccc2S(=O)(=O)N1c1ccc(Cl)cc1 [Example 24, 4-(2-chloro-6-fluorobenzyl)-2-(4-chlorophenyl)-2H-1,2,4-benzothiadiazin-3(4H)-one 1,1-dioxide] | 7.08
O=C1N(Cc2c(F)cccc2Cl)c2ccccc2S(=O)(=O)N1c1ccccc1 [Example 26, 4-(2-chloro-6-fluorobenzyl)-2-phenyl-2H-1,2,4-benzothiadiazin-3(4H)-one 1,1-dioxide] | 79.4
Cc1ccc(N2C(=O)N(Cc3c(F)cccc3Cl)c3ccccc3S2(=O)=O)cc1 [Example 28, 4-(2-chloro-6-fluorobenzyl)-2-(4-methylphenyl)-2H-1,2,4-benzothiadiazin-3(4H)-one 1,1-dioxide] | 5.62
CCOc1ccc(N2C(=O)N(Cc3c(F)cccc3Cl)c3ccccc3S2(=O)=O)cc1 [Example 29, 4-(2-chloro-6-fluorobenzyl)-2-(4-ethoxyphenyl)-2H-1,2,4-benzothiadiazin-3(4H)-one 1,1-dioxide] | 31.6
CC(=O)c1ccc(N2C(=O)N(Cc3c(F)cccc3Cl)c3ccccc3S2(=O)=O)cc1 [Example 30, 2-(4-acetylphenyl)-4-(2-chloro-6-fluorobenzyl)-2H-1,2,4-benzothiadiazin-3(4H)-one 1,1-dioxide] | 20
CCc1ccccc1N1C(=O)N(Cc2c(F)cccc2Cl)c2ccccc2S1(=O)=O [Example 33, 4-(2-chloro-6-fluorobenzyl)-2-(2-ethylphenyl)-2H-1,2,4-benzothiadiazin-3(4H)-one 1,1-dioxide] | 28.2
COc1ccccc1N1C(=O)N(Cc2c(F)cccc2Cl)c2ccccc2S1(=O)=O [Example 35, 4-(2-chloro-6-fluorobenzyl)-2-(2-methoxyphenyl)-2H-1,2,4-benzothiadiazin-3(4H)-one 1,1-dioxide] | 31.6
COc1cccc(N2C(=O)N(Cc3c(F)cccc3Cl)c3ccccc3S2(=O)=O)c1 [Example 36, 4-(2-chloro-6-fluorobenzyl)-2-(3-methoxyphenyl)-2H-1,2,4-benzothiadiazin-3(4H)-one 1,1-dioxide] | 15.8
CCc1ccc(N2C(=O)N(Cc3c(F)cccc3Cl)c3ccccc3S2(=O)=O)cc1 [Example 37, 4-(2-chloro-6-fluorobenzyl)-2-(4-ethylphenyl)-2H-1,2,4-benzothiadiazin-3(4H)-one 1,1-dioxide] | 5.01
O=C1N(Cc2c(F)cccc2Cl)c2ccccc2S(=O)(=O)N1Cc1ccc(F)cc1 [Example 39, 4-(2-chloro-6-fluorobenzyl)-2-(4-fluorobenzyl)-2H-1,2,4-benzothiadiazin-3(4H)-one 1,1-dioxide] | 20
O=C1N(Cc2c(F)cccc2Cl)c2ccccc2S(=O)(=O)N1Cc1ccccc1 [Example 40, 2-benzyl-4-(2-chloro-6-fluorobenzyl)-2H-1,2,4-benzothiadiazin-3(4H)-one 1,1-dioxide] | 26.3
O=C1N(Cc2c(F)cccc2Cl)c2ccccc2S(=O)(=O)N1c1cccc(Cl)c1 [Example 42, 4-(2-chloro-6-fluorobenzyl)-2-(3-chlorophenyl)-2H-1,2,4-benzothiadiazin-3(4H)-one 1,1-dioxide] | 14.1
O=C1N(Cc2c(F)cccc2Cl)c2ccccc2S(=O)(=O)N1c1ccc(F)cc1 [Example 44, 4-(2-chloro-6-fluorobenzyl)-2-(4-fluorophenyl)-2H-1,2,4-benzothiadiazin-3(4H)-one 1,1-dioxide] | 31.6
O=C1N(Cc2c(F)cccc2Cl)c2ccccc2S(=O)(=O)N1c1cc(F)ccc1F [Example 46, 4-(2-chloro-6-fluorobenzyl)-2-(2,5-difluorophenyl)-2H-1,2,4-benzothiadiazin-3(4H)-one 1,1-dioxide] | 63.1
CCc1cccc(N2C(=O)N(Cc3c(F)cccc3Cl)c3ccccc3S2(=O)=O)c1 [Example 47, 4-(2-chloro-6-fluorobenzyl)-2-(3-ethylphenyl)-2H-1,2,4-benzothiadiazin-3(4H)-one 1,1-dioxide] | 2.51

Further lines, results first:

Ki [nM] | SMILES
0.741 | COc1ccc(N2C(=O)N(Cc3c(F)cccc3Cl)c3ccccc3S2(=O)=O)cc1OC [Example 20, 4-(2-chloro-6-fluorobenzyl)-2-(3,4-dimethoxyphenyl)-2H-1,2,4-benzothiadiazin-3(4H)-one 1,1-dioxide]
2.51 | Cc1ccc(N2C(=O)N(Cc3c(F)cccc3Cl)c3ccccc3S2(=O)=O)cc1Cl [Example 25, 4-(2-chloro-6-fluorobenzyl)-2-(3-chloro-4-methylphenyl)-2H-1,2,4-benzothiadiazin-3(4H)-one 1,1-dioxide]
0.631 | Cc1cc(C)cc(N2C(=O)N(Cc3c(F)cccc3Cl)c3ccccc3S2(=O)=O)c1 [Example 27, 4-(2-chloro-6-fluorobenzyl)-2-(3,5-dimethylphenyl)-2H-1,2,4-benzothiadiazin-3(4H)-one 1,1-dioxide]
10.5 | Cc1cccc(N2C(=O)N(Cc3c(F)cccc3Cl)c3ccccc3S2(=O)=O)c1 [Example 31, 4-(2-chloro-6-fluorobenzyl)-2-(3-methylphenyl)-2H-1,2,4-benzothiadiazin-3(4H)-one 1,1-dioxide]
28.2 | Cc1ccc(C)c(N2C(=O)N(Cc3c(F)cccc3Cl)c3ccccc3S2(=O)=O)c1 [Example 32, 4-(2-chloro-6-fluorobenzyl)-2-(2,5-dimethylphenyl)-2H-1,2,4-benzothiadiazin-3(4H)-one 1,1-dioxide]
1.12 | Cc1ccc(N2C(=O)N(Cc3c(F)cccc3Cl)c3ccccc3S2(=O)=O)cc1C [Example 34, 4-(2-chloro-6-nuorobenzyl)-2-(3,4-dimethylphenyl)-2H-1,2,4-benzothiadiazin-3(4H)-one 1,1-dioxide]
15.8 | Cc1cccc(N2C(=O)N(Cc3c(F)cccc3Cl)c3ccccc3S2(=O)=O)c1C [Example 38, 4-(2-chloro-6-fluorobenzyl)-2-(2,3-dimethylphenyl)-2H-1,2,4-benzothiadiazin-3(4H)-one 1,1-dioxide]
25.1 | Cc1ccc(Cl)cc1N1C(=O)N(Cc2c(F)cccc2Cl)c2ccccc2S1(=O)=O [Example 41, 4-(2-chloro-6-fluorobenzyl)-2-(5-chloro-2-methylphenyl)-2H-1,2,4-benzothiadiazin-3(4H)-one 1,1-dioxide]
4.68 | Cc1ccc(N2C(=O)N(Cc3c(F)cccc3Cl)c3ccccc3S2(=O)=O)cc1F [Example 43, 4-(2-chloro-6-fluorobenzyl)-2-(3-fluoro-4-methylphenyl)-2H-1,2,4-benzothiadiazin-3(4H)-one 1,1-dioxide]
16.6 | Cc1ccc(N2C(=O)N(Cc3c(F)cccc3Cl)c3ccccc3S2(=O)=O)c(C)c1 [Example 45, 4-(2-chloro-6-fluorobenzyl)-2-(2,4-dimethylphenyl)-2H-1,2,4-benzothiadiazin-3(4H)-one 1,1-dioxide]
